Data published in US10654818B2, “Furane derivatives as inhibitors of ATAD2” (BAYER PHARMA AKTIENGESELLSCHAFT, priority 2015, dated 2020).

Target: T1, recombinant, N-terminally GST-tagged ATAD2 bromodomain amino acids 981-1108 (Homo sapiens, UniProt Q6PL18)
T1 construct: ATAD2 bromodomain amino acids 981-1108; made in house; host or cells: E. coli
T1 sequence (Q6PL18 981-1108): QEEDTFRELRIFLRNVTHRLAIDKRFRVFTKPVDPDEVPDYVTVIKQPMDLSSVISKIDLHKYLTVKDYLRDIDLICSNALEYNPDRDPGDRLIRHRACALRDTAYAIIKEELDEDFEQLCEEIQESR
Test: TR-FRET assay: disruption of the interaction between ATAD2 and acetylated Histone H4 (Ac-H4) peptide
Type: binding
Settings: inhibition of ATAD2/Ac-H4 complex formation; 10 nM ATAD2, 50 nM Ac-H4 peptide
Source text: The ability of the compounds described in the present invention to disrupt the interaction between ATAD2 and acetylated Histone H4 (Ac-H4) was used as quantitative measure of their ATAD2-binding affinities.
To this end a TR-FRET assay which detects the binding of an Ac-H4-derived synthetic peptide (purchased from e.g. Biosyntan (Berlin, Germany)) of sequence HSGRGKGGGGKGLGK(Ac)GGAKRHRK-Biotin to recombinant, N-terminally GST-tagged ATAD2 bromodomain amino acids 981-1108. The protein was produced in-house via E. coli expression followed by GSH-Sepharose affinity- and Superdex S200-size exclusion chromatography purification.
Typically, 11 different concentrations of each compound (0.1 nM, 0.33 nM, 1.1 nM, 3.8 nM, 13 nM, 44 nM, 0.15 μM, 0.51 μM, 1.7 μM, 5.9 μM and 20 μM) were tested in duplicate within the same microtiter plate. To this end, 100-fold concentrated compound solutions (in DMSO) were previously prepared with a Precision Pippeting System (BioTek) by serial dilution (1:3.4) of 2 mM stocks in clear, low-volume 384-well microtiter source plates (Greiner Bio-One). Subsequently, 50 nl of compounds were transferred into black, low-volume test plates from the same supplier using a Hummingbird capillary based liquid handling instrument (Digilab). Tests were started by the addition of 2 μl of 2.5-fold concentrated ATAD2 solution (25 nM=10 nM final concentration in the 5 μl assay volume) in aqueous assay buffer [50 mM HEPES pH 7.5, 50 mM potassium fluoride (KF), 100 mM sodium chloride (NaCl), 0.25 mM CHAPS, 0.05% bovine serum albumine (BSA) and 1 mM dithiothreitol (DTT)] to the compounds in the test plate with a Multidrop dispenser (Thermo-Fisher). Test plates were then incubated 10′ at 22° C., in order to allow pre-equilibration of putative compound-ATAD2 complexes. Subsequently, 3 μl of a 1.67-fold concentrated solution containing Ac-H4 peptide (83.5 nM=50 nM final concentration) and TR-FRET detection reagents [16.7 nM Anti-GST-XL665 (Cisbio), =10 nM final concentration and 4.17 nM Lance EU W-1024 Streptavidin Europium Chelate (Perkin-Elmer)=2.5 nM final concentration were dispensed into the plates.
The mixture was further incubated in the dark for 1 hour at 22° C. Finally the inhibition of the formation of ATAD2/Ac-H4 complexes was assessed by measurement of the resonance energy transfer from the Streptavidin-Eu-Chelate to the anti-GST-XL665 antibody present in the reaction. To this end, the fluorescence emissions at 622 nm and 665 nm after excitation at 337 nm were measured in a TR-FRET reader, e.g. a Rubystar or Pherastar (both from BMG Lab Technologies) or a Viewlux (Perkin-Elmer) and the ratio of the emissions at 665 nm and at 622 nm was taken as indicator for the amount of ATAD2/Ac-H4 complexes in equilibrium.
The data were normalized using two sets of control wells (16 each). The first accounted for 100% ATAD2/Ac-H4 binding (0% inhibition), and contained all reaction components but DMSO instead of inhibitors. The second represented 0% ATAD2/Ac-H4 binding (100% inhibition), and included all assay components except ATAD2. IC50 values were calculated by fitting the normalized inhibition data to a 4-parameter logistic equation using either Screener software (Genedata) or a Bayer-proprietary analysis software.

IC50	Compound
759 nM	Cc1ccc([C@@H](C)NCc2ccc(-c3ccc(Cl)c(C(=O)N[C@@H](CO)Cc4ccc(C#N)cc4N)c3)o2)cc1 [Example 41, N-[(2R)-1-(2-amino-4-cyanophenyl)-3-hydroxypropan-2-yl]-2-chloro-5-[5-({[(1R)-1-(4-methylphenyl)ethyl]amino}methyl)-2-furyl]benzamide]
1710 nM	CC(=O)NC[C@@H](Cc1ccc(C#N)cc1)NC(=O)c1cc(-c2ccc(CN[C@H](C)c3ccc(C)cc3)o2)ccc1Cl [Example 43, N-[(2R)-1-acetamido-3-(4-cyanophenyl)propan-2-yl]-2-chloro-5-[5-({[(1R)-1-(4-methylphenyl)ethyl]amino}methyl)-2-furyl]benzamide]
1600 nM	Cc1ccc([C@@H](C)NCc2ccc(-c3ccc(Cl)c(C(=O)N[C@@H](CO)Cc4cccc(C#N)c4)c3)o2)cc1 [Example 44, 2-chloro-N-[(2R)-1-(3-cyanophenyl)-3-hydroxypropan-2-yl]-5-[5-({[(1R)-1-(4-methylphenyl)ethyl]amino}methyl)-2-furyl]benzamide]
1800 nM	Cc1ccc([C@@H](C)NCc2ccc(-c3ccc(Cl)c(C(=O)N[C@H](Cc4ccc(C#N)cc4)[C@H](O)CC(C)C)c3)o2)cc1 [Example 45, 2-chloro-N-[(2R,3R)-1-(4-cyanophenyl)-3-hydroxy-5-methylhexan-2-yl]-5-[5-({[(1R)-1-(4-methylphenyl)ethyl]amino}methyl)-2-furyl]benzamide]
1100 nM	Cc1ccc([C@@H](C)NCc2ccc(-c3ccc(Cl)c(C(=O)N[C@H](Cc4ccc(C#N)cc4)[C@@H](O)CC(C)C)c3)o2)cc1 [Example 46, 2-chloro-N-[(2R,3S)-1-(4-cyanophenyl)-3-hydroxy-5-methylhexan-2-yl]-5-[5-({[(1R)-1-(4-methylphenyl)ethyl]amino}methyl)-2-furyl]benzamide]
2100 nM	Cc1ccc([C@@H](C)NCc2ccc(-c3ccc(Cl)c(C(=O)N[C@@H](CO)Cc4ccncc4)c3)o2)cc1 [Example 47, 2-chloro-N-[(2R)-1-hydroxy-3-(pyridin-4-yl)propan-2-yl]-5-[5-({[(1R)-1-(4-methylphenyl)ethyl]amino}methyl)-2-furyl]benzamide]
1080 nM	Cc1ccc([C@@H](C)NCc2ccc(-c3ccc(Cl)c(C(=O)N[C@@H](CO)Cc4ccc(C(N)=O)cc4)c3)o2)cc1 [Example 48, N-[(2R)-1-(4-carbamoylphenyl)-3-hydroxypropan-2-yl]-2-chloro-5-[5-({[(1R)-1-(4-methylphenyl)ethyl]amino}methyl)-2-furyl]benzamide]
1760 nM	Cc1ccc([C@@H](C)NCc2ccc(-c3ccc(Cl)c(C(=O)N[C@H](Cc4ccc(C#N)cc4)CN4CCCC4)c3)o2)cc1 [Example 49, 2-chloro-N-[(2R)-1-(4-cyanophenyl)-3-(pyrrolidin-1-yl)propan-2-yl]-5-[5-({[(1R)-1-(4-methylphenyl)ethyl]amino}methyl)-2-furyl]benzamide]
1260 nM	COC(=O)C[C@@H](Cc1ccc(C#N)cc1)NC(=O)c1cc(-c2ccc(CN[C@H](C)c3ccc(C)cc3)o2)ccc1Cl [Example 50, methyl (3R)-3-({2-chloro-5-[5-({[(1R)-1-(4-methylphenyl)ethyl]amino}methyl)-2-furyl]benzoyl}amino)-4-(4-cyanophenyl)butanoate]
810 nM	COC(=O)c1ccc(C[C@H](CO)NC(=O)c2cc(-c3ccc(CN[C@H](C)c4ccc(C)cc4)o3)ccc2Cl)cc1 [Example 51, methyl 4-[(2R)-2-({2-chloro-5-[5-({[(1R)-1-(4-methylphenyl)ethyl]amino}methyl)-2-furyl]benzoyl}amino)-3-hydroxypropyl]benzoate]
705 nM	Cc1ccc([C@@H](C)NCc2ccc(-c3ccc(Cl)c(C(=O)N[C@@H](CNS(C)(=O)=O)Cc4ccc(C#N)cc4)c3)o2)cc1 [Example 54, 2-chloro-N-{(2R)-1-(4-cyanophenyl)-3-[(methylsulfonyl)amino]propan-2-yl}-5-[5-({[(1R)-1-(4-methylphenyl)ethyl]amino}methyl)-2-furyl]benzamide]
274 nM	Cc1ccc([C@@H](C)NCc2ccc(-c3ccc(Cl)c(C(=O)N[C@@H](CNCC(=O)N4CCNCC4)Cc4ccc(C#N)cc4)c3)o2)cc1 [Example 55, 2-chloro-N-[(2R)-1-(4-cyanophenyl)-3-{[2-oxo-2-(piperazin-1-yl)ethyl]amino}propan-2-yl]-5-[5-({[(1R)-1-(4-methylphenyl)ethyl]amino}methyl)-2-furyl]benzamide]
510 nM	Cc1ccc([C@@H](C)NCc2ccc(-c3ccc(Cl)c(C(=O)N[C@@H](CNC(=O)C4CCNCC4)Cc4ccc(C#N)cc4)c3)o2)cc1 [Example 56, N-[(2R)-2-({2-chloro-5-[5-({[(1R)-1-(4-methylphenyl)ethyl]amino}methyl)-2-furyl]benzoyl}amino)-3-(4-cyanophenyl)propyl]piperidine-4-carboxamide]
520 nM	Cc1ccc([C@@H](C)NCc2ccc(-c3ccc(Cl)c(C(=O)N[C@@H](CNC(=O)CC4CCNCC4)Cc4ccc(C#N)cc4)c3)o2)cc1 [Example 57, 2-chloro-N-{(2R)-1-(4-cyanophenyl)-3-[(piperidin-4-ylacetyl)amino]propan-2-yl}-5-[5-({[(1R)-1-(4-methylphenyl)ethyl]amino}methyl)-2-furyl]benzamide]
172 nM	Cc1ccc([C@@H](C)NCc2ccc(-c3ccc(Cl)c(C(=O)N[C@@H](CNC4CCN(C)CC4)Cc4ccc(C#N)cc4)c3)o2)cc1 [Example 58, 2-chloro-N-{(2R)-1-(4-cyanophenyl)-3-[(1-methylpiperidin-4-yl)amino]propan-2-yl}-5-[5-({[(1R)-1-(4-methylphenyl)ethyl]amino}methyl)-2-furyl]benzamide]
625 nM	Cc1ccc([C@@H](C)NCc2ccc(-c3ccc(Cl)c(C(=O)N[C@@H](CNC4CCN(Cc5ccccc5)CC4)Cc4ccc(C#N)cc4)c3)o2)cc1 [Example 59]
1900 nM	Cc1ccc([C@@H](C)NCc2ccc(-c3ccc(Cl)c(C(=O)N[C@@H](CNCc4ccccc4)Cc4ccc(C#N)cc4)c3)o2)cc1 [Example 60]
798 nM	Cc1ccc([C@@H](C)NCc2ccc(-c3ccc(Cl)c(C(=O)N[C@@H](CNCC(C)C)Cc4ccc(C#N)cc4)c3)o2)cc1 [Example 61]
332 nM	CCN1CCC(NC[C@@H](Cc2ccc(C#N)cc2)NC(=O)c2cc(-c3ccc(CN[C@H](C)c4ccc(C)cc4)o3)ccc2Cl)CC1 [Example 62]
320 nM	Cc1ccc([C@@H](C)NCc2ccc(-c3ccc(Cl)c(C(=O)N[C@@H](CNC4CCN(CC(C)C)CC4)Cc4ccc(C#N)cc4)c3)o2)cc1 [Example 63]
1180 nM	Cc1ccc([C@@H](C)NCc2ccc(-c3ccc(Cl)c(C(=O)N[C@@H](CNC4CCN(C(=O)OC(C)(C)C)CC4)Cc4ccc(C#N)cc4)c3)o2)cc1 [Example 64]
121 nM	Cc1ccc([C@@H](C)NCc2ccc(-c3ccc(Cl)c(C(=O)N[C@@H](CN[C@H]4CCCN(C)C4)Cc4ccc(C#N)cc4)c3)o2)cc1 [Example 65]
265 nM	Cc1ccc([C@@H](C)NCc2ccc(-c3ccc(Cl)c(C(=O)N[C@@H](CNC4CCNCC4)Cc4ccc(C#N)cc4)c3)o2)cc1 [Example 67]
112 nM	Cc1ccc([C@@H](C)NCc2ccc(-c3ccc(Cl)c(C(=O)N[C@@H](CNCC4CCNCC4)Cc4ccc(C#N)cc4)c3)o2)cc1 [Example 69]
85.8 nM	Cc1ccc([C@@H](C)NCc2ccc(-c3ccc(Cl)c(C(=O)N[C@@H](CNCCC4CCNCC4)Cc4ccc(C#N)cc4)c3)o2)cc1 [Example 70]
132 nM	Cc1ccc([C@@H](C)NCc2ccc(-c3ccc(Cl)c(C(=O)N[C@@H](CNC4CCNCC4F)Cc4ccc(C#N)cc4)c3)o2)cc1 (some centres unmarked) [Example 73]
